In patent publication US20060286054A1, “PHARMACEUTICAL COMPOSITIONS FOR THE TREATMENT OF PSORIASIS” (Apollo Pharmaceutical, Inc., priority 2005, published 2006):
Values joined by “and” are separate entries in the source; they are usually repeats but may differ in a detail not shown here. Identical values can stand only once.

Key:
keratinocyte = settings: Muller et al. 1995; cited from earlier work
THP-1 cells = test: MTT assay of THP-1 cell proliferation; assay type: cell-based; settings: titration
Experimental: THP-1 cells were sub-cultured in 96 well culture plates at a density of 20,000 cells/well. LPS (100 ng/ml) and titrating amounts of Psorberine and/or Calcipotriol were then added to triplicate wells. The cells were cultured for 5 days, at which point the culture plates were centrifuged, the culture media removed and saved, and fresh media containing 0.863 mg/ml MTT added. After culturing for an additional 4 h, the plates were centrifuged again, the media removed from the formazan crystals and the well contents solubilized in DMSO. The absorbance of each well at 560 nm was measured. The data were normalized to the averaged results of the control wells receiving water. The culture supernatants were tested in ELISA (Bio-Source, International) for IL-8, TNF-α and IL-1β content. The effect of Psorberine on THP-1 cell proliferation was examined. […] The increase in the percentage of control seen in the MTT assay at the high concentrations of Psorberine (1:10 and 1:20 dilutions), is most probably due to the strong coloring of the compound (dark green). There is a very high OD recovered from MTT assay upon incubating […] cells with these dilutions of Psorberine.

Peripheral blood T cell = test: T cell proliferation measured by the MTT assay; assay type: cell-based; settings: for MTT % of Control: T cells, W/LPS
Experimental: Twenty ml aliquots of heparinized whole blood were subjected to density gradient centrifugation on Ficoll Hypaque. The buffy coat layers representing peripheral blood mononuclear cells (PBMCs) containing lymphocytes and monocytes were washed once, resuspended in RPMI 1640 containing 10% fetal calf sera and then depleted of B cells and monocytes with a T cell enrichment column (R&D Systems). The T cell preparations were centrifuged, resuspended in 5 ml of incomplete RPMI and counted using a hemocytometer. Aliquots of each cell preparation (40,000 cells in 200 μl of incomplete RPMI) were placed in the wells of 96 well culture plates and cultured overnight at 37° C. under 5% CO2. Twenty five μl of RPMI containing 1 μg/ml PMA and 8 μg/ml ionomycin. After culturing for 24 h, the plates were centrifuged at 1200 rpm for 10 min and the culture supernatants removed and saved. Two hundred μl of complete RPMI containing 0.86 mg/ml MTT was added to each well and the plates cultured for an additional 4 h. The plates were centrifuged again, the media removed and the well contents solubilized in 100% DMSO. The optical density at 560 nm of each well was determined and the averaged mean of the duplicate well calculated. The background OD560 value, determined from control wells receiving media containing no MTT, was subtracted from these values and the data normalized to that of the control wells (0 nM compound). IL-2 secretion by activated T cells was determined in the culture supernatants of these cells. The supernatants were assessed using the R&D Biosystems ELISA kit for human IL-2.

IL-2 [1] = test: IL-2 release from THP-1 cells; assay type: cell-based; settings: titration curve centered at ˜5 nM
IL-2 [2] = test: IL-2 secretion by peripheral blood T cells activated with PMA plus ionomycin (ELISA); assay type: cell-based, human; settings: 24 h, between 0.01-10 nM
Experimental: Twenty ml aliquots of heparinized whole blood were subjected to density gradient centrifugation on Ficoll Hypaque. The buffy coat layers representing peripheral blood mononuclear cells (PBMCs) containing lymphocytes and monocytes were washed once, resuspended in RPMI 1640 containing 10% fetal calf sera and then depleted of B cells and monocytes with a T cell enrichment column (R&D Systems). The T cell preparations were centrifuged, resuspended in 5 ml of incomplete RPMI and counted using a hemocytometer.
Aliquots of each cell preparation (40,000 cells in 200 μl of incomplete RPMI) were placed in the wells of 96 well culture plates and cultured overnight at 37° C. under 5% CO2. […] The optical density at 560 nm of each well was determined and the averaged mean of the duplicate well calculated. The background OD560 value, determined from control wells receiving media containing no MTT, was subtracted from these values and the data normalized to that of the control wells (0 nM compound). IL-2 secretion by activated T cells was determined in the culture supernatants of these cells. The supernatants were assessed using the R&D Biosystems ELISA kit for human IL-2.
The release of IL-2 was also determined 24 h after stimulating peripheral blood T cells with PMA plus ionomycin, in the presence or absence of Psorberine and/or Calcipotriol. […]

Jurkat cells [3] = test: In vitro chemotaxis assay of Jurkat cells towards SDF-1α; assay type: cell-based; settings: for Cell Number (migrated cells per filter) / Migration Index (MI): filters 1-4
Experimental: Jurakt cells ere grown in cultures in the presence of complete RPMI media. These cells were split one day prior to the assay. More than 99% viable cells were used in the chemotaxis assay. SDF-1α was purchased from Peprotech, Inc.
96 well plate chemotaxis chambers with a pore size of […] (ChemoTx, Neuro Probe, Inc.) were used in this assay. In the lower wells 30 μl of either RPMI plus 0.1% BSA (control), or 30 μl containing 1 μg/ml SDF-1α (positive chemotaxis) were placed. In other wells, 24 μl containing 1 μg/ml SDF-1α was added to 6 μl of media containing the appropriate concentrations of Psorberine, Calcipotriol or their combination. In the upper wells, 20 μl of media containing 20,000 cells (1×10^6/ml) either alone or in combinations with the compounds were placed. After 2 h, the upper part of the filters was washed with coton swaps to remove the non-migrating cells, and the filters were fixed with absolute methanol for 3 minutes. After this, the filters were stained with 15% Giemsa stain for 7.5 min. The filters were washed three times with distilled water, and the cells migrating to the lower wells were counted under light micriscope. For control (cells migrating in the absence of the chemoattractant), 7 filters were used, whereas 4 filters were used in the experimental conditions. Migration Index (MI) was calculated by dividing the number of cells migrating in the experimental filters by the average number of cells migrating in the control filters.

Jurkat cells [4] = test: Viability of Jurkat cells (Trypan blue exclusion); assay type: cell-based
Experimental: The chemotaxis assay was corroborated by determining the viability of Jurkat cells. Viability of these cells either incubated in culture medium alone or with Psorberine or Calcipotriol under the same conditions as in the chemotaxis assay, was done by distinguishing dead from viable cells in the Trypan blue exclusion test. Viability of THP-1 cells was determined after incubating these cells with various concentrations of Psorberine for 4 h.

[5] = 1 μg/ml SDF-1α + 20 nM Calcipotriol
[6] = 1 μg/ml SDF-1α + 80 nM Calcipotriol
[7] = 1 μg/ml SDF-1α + 160 nM Calcipotriol

SMILES: COc1ccc2cc3[n+](cc2c1OC)CCc1cc2c(cc1-3)OCO2 [berberine]
- keratinocyte growth in vitro (keratinocyte): inhibits

SMILES: C=C1/C(=C\C=C2/CCC[C@]3(C)[C@@H]([C@H](C)/C=C/[C@@H](O)C4CC4)CC[C@@H]23)C[C@@H](O)C[C@@H]1O [Calcipotriol, calcipotriol]
- effect of titrating levels on THP-1 cell proliferation (THP-1 cells): multi-phasic, with stimulation seen above concentrations of 1 nM
- MTT % of Control (Peripheral blood T cell; concentration 0.050 (unit not given)): 109.0164%
- MTT % of Control (Peripheral blood T cell; concentration 0.100 (unit not given)): 88.52%
- MTT % of Control (Peripheral blood T cell; concentration 0.500 (unit not given)): 107.377%
- MTT % of Control (Peripheral blood T cell; concentration 1.000 (unit not given)): 99.18%
- MTT % of Control (Peripheral blood T cell; concentration 5.000 (unit not given)): 78.69%
- MTT % of Control (Peripheral blood T cell; concentration 10.000 (unit not given)): 116.3934%
- MTT % of Control (Peripheral blood T cell; concentration 50.000 (unit not given)): 113.1148%
- MTT % of Control (Peripheral blood T cell; concentration 100.000 (unit not given)): 83.61%
- T cell proliferation (Peripheral blood T cell; absence or presence of PMA plus ionomycin): Significant differences in T cell proliferation were not observed
- IL-2 release (IL-2 [1]): slight increase
- reduction of IL-2 concentration (IL-2 [2]): 40-50%
- Cell Number (migrated cells per filter) (Jurkat cells [3]; [5]): 240 and 200 and 155 and 170
- Migration Index (MI) (Jurkat cells [3]; [5]): 5.7 and 4.8 and 3.7 and 4.1
- Cell Number (migrated cells per filter) (Jurkat cells [3]; [6]): 240 and 160 and 180 and 220
- Migration Index (MI) (Jurkat cells [3]; [6]): 5.7 and 3.8 and 4.3 and 5.2
- Cell Number (migrated cells per filter) (Jurkat cells [3]; [7]): 200 and 198 and 150 and 205
- Migration Index (MI) (Jurkat cells [3]; [7]): 4.8 and 4.7 and 3.6 and 4.9
- SDF-1α-induced Jurkat cell chemotaxis (Jurkat cells [3]; between 20-160 nM): did not affect
- # Dead Cells (Jurkat cells [4]; 20 nM Calcipotriol): 178
- # Viable Cells (Jurkat cells [4]; 20 nM Calcipotriol): 18
- % Viability (Jurkat cells [4]; 20 nM Calcipotriol): 91%
- # Dead Cells (Jurkat cells [4]; 80 nM Calcipotriol): 175
- # Viable Cells (Jurkat cells [4]; 80 nM Calcipotriol): 17
- % Viability (Jurkat cells [4]; 80 nM Calcipotriol): 91%
- # Dead Cells (Jurkat cells [4]; 160 nM Calcipotriol): 134
- # Viable Cells (Jurkat cells [4]; 160 nM Calcipotriol): 11
- % Viability (Jurkat cells [4]; 160 nM Calcipotriol): 92%
